Literature values as cited in PMC6151961 (Journal of Enzyme Inhibition and Medicinal Chemistry, 2018).
Like-named read-outs stand apart in the source and are kept apart here.

Target: CA IX (Homo sapiens, UniProt Q16790)
Conditions: cited from earlier work
[1] = library compounds (IDs A…, B…) of Table S4, ref ChEMBL and BindingDB, read-out: Ki
[2] = library compounds (IDs A…, B…), values equal log10 of Ki in nM, ref ChEMBL and BindingDB
[3] = library compounds (IDs A…, B…), observed Ki towards CA IX, ref ChEMBL and BindingDB, read-out: Ki
[4] = experimental pKi towards CA IX, library compounds, ref ChEMB database (ID A), BindingDB (ID B)
[5] = observed Ki towards CA IX, library compounds, ref ChEMB database (ID A), BindingDB (ID B), read-out: Ki

Row | Compound | log10 of Ki in nM | Ki (read-out: Ki) [nM] | log10 of Ki in nM [2] | also measured
1 | Cc1ccc(-c2nn(-c3ccc(S(N)(=O)=O)cc3)cc2/C=N/Nc2nc(-c3cc4cc(Cl)ccc4oc3=O)cs2)cc1 [B0318] | 1.380 | 24 |  | 
2 | COc1ccc2c(c1)CCN(S(N)(=O)=O)[C@H]2c1ccc(N)cc1 [A0718] |  |  | 1.079 | Ki [1]: 12 nM
3 | CCCN(CCC)S(=O)(=O)c1ccc(C(=O)N[C@H](CO)C(N)=O)cc1 [B0020] | 0.415 | 2.6 |  | 
4 | CCOc1ccc2c(c1)CCN(S(N)(=O)=O)[C@H]2c1ccc(S(N)(=O)=O)cc1 [A1289] | 1.717 | 52.1 |  | 
5 | CC(=O)OC[C@@H]1O[C@H](O[C@@H]2[C@@H](OC(C)=O)[C@H](OC(C)=O)[C@H](n3cc(COC(=O)c4ccc(S(N)(=O)=O)cc4)nn3)O[C@@H]2COC(C)=O)[C@H](OC(C)=O)[C@H](OC(C)=O)[C@H]1OC(C)=O [B0633] | 2.114 | 130 |  | 
6 | NS(=O)(=O)c1ccc([C@H]2C(Oc3ccccc3)=NON2O)cc1 [A1359] |  |  | 1.806 | Ki [3]: 63.9 nM
7 | C[C@]12CC[C@H]3[C@@H]([C@H]1CCC2=O)[C@@H](O)C=C1C[C@@H](OS(N)(=O)=O)CC[C@]13C [B0490] | 1.813 |  |  | Ki: 65 nM
8 | CC/C(=N/Nc1ccc([N+](=O)[O-])cc1)Sc1cc(Cl)c(C)cc1S(N)(=O)=O [A2453] |  |  | 4.000 | Ki [3]: 10000 nM
9 | CCO[C@H]1Oc2ccccc2C(=O)[C@@H]1/C=N\c1ccc(S(=O)(=O)Nc2nccs2)cc1 [B0283] |  |  | 1.301 | Ki [1]: 20 nM
10 | CC(=O)OC[C@@H]1O[C@@H](NS(N)(=O)=O)CC[C@H]1OC(C)=O [B0190] |  |  | 0.954 | Ki (observed Ki of library compounds (IDs A…, B…), ref ChEMBL and BindingDB, read-out: Ki): 9 nM
11 | NS(=O)(=O)c1ccc2c(c1)S(=O)(=O)C[C@H]2OCc1ccccc1 [A0131] |  |  | 0.447 | Ki [1]: 2.8 nM
12 | CC(=O)OC[C@@H]1O[C@H](NS(=O)(=O)NO)C=C[C@H]1OC(C)=O [B0526] | 1.898 | 79 |  | 
13 | CCCN(CCC)S(=O)(=O)c1ccc(C(=O)N[C@H](C)C(N)=O)cc1 [B0254, reference compound] |  |  |  | Ki (CA IX, library ligands, ref ChEMBL[43] and BindingDB[44], read-out: Ki): 15 nM; log10 of Ki in nM (CA IX, observed value, equals log of Ki in nM, ref ChEMBL[43] and BindingDB[44]): 1.176
14 | CC(=O)OC[C@@H]1O[C@H](SNCCc2ccc(S(N)(=O)=O)cc2)[C@@H](OC(C)=O)[C@H](OC(C)=O)[C@@H]1OC(C)=O [B0585] | 1.987 | 97 |  | 
15 | CC(=O)OC[C@@H]1O[C@@H](SCc2nnn(-c3ccc(S(N)(=O)=O)cc3)c2I)[C@H](OC(C)=O)[C@@H](OC(C)=O)[C@@H]1OC(C)=O [B0581] |  |  |  | log10 of Ki in nM [4]: 1.978; Ki [5]: 95 nM
16 | CC(=O)Nc1ccc(S(=O)(=O)NC[C@H](C)F)cc1 [B0810] |  |  |  | log10 of Ki in nM [4]: 3.643; Ki [5]: 4400 nM
17 | NS(=O)(=O)c1ccc([C@H]2c3ccc(O)cc3CCN2S(N)(=O)=O)cc1 [A0504, reference compound] | 0.898 | 7.9 |  | 
18 | NS(=O)(=O)c1ccc(CC/N=C\c2ccc(-c3ccccn3)cc2)cc1 [A1025] |  |  |  | log10 of Ki in nM [4]: 1.446; Ki [5]: 27.9 nM
19 | CC1(C)O[C@H]2[C@H](CO[C@]3(CNC(=S)Nc4ccc(S(N)(=O)=O)cc4)OC(C)(C)O[C@H]23)O1 [B0536] | 1.914 | 82 |  | 
20 | CC1(C)CC(NC(=S)Nc2ccc(S(N)(=O)=O)cc2)CC(C)(C)N1O [A1198] |  |  | 1.613 | Ki [3]: 41 nM
21 | Cc1cc(C)c2nc(S)n(-c3ccc(S(N)(=O)=O)cc3)c(=O)c2c1 [B0272] |  |  |  | log10 of Ki in nM (library compounds (IDs A..., B...), values equal log10 of Ki in nM, ref ChEMBL, BindingDB): 1.255; Ki (observed Ki of library compounds (IDs A..., B...), ref ChEMBL, BindingDB, read-out: Ki): 18 nM
22 | CC1(C)O[C@@H]2O[C@H]([C@@H]3COC(C)(C)O3)[C@@H](OS(N)(=O)=O)[C@@H]2O1 [B0417] | 1.591 | 39 |  | 
23 | CC(=O)N1N=C(c2ccc(C)cc2)C[C@H]1c1c(C)nn(-c2ccc(S(N)(=O)=O)cc2)c1Cl [A1383] |  |  | 1.827 | Ki [3]: 67.1 nM
24 | NS(=O)(=O)c1ccc(OC2=NON(O)[C@@H]2S(=O)(=O)c2ccccc2)cc1 [A0390] |  |  | 0.806 | Ki [3]: 6.4 nM
